Literature values, collected in patent publication US7601526B2 (priority 2004, dated 2009).

System: F. tularensis

Structure (SMILES)	type of antibacterial action against F. tularensis
O=C(N[C@H](CO)[C@H](O)c1ccc([N+](=O)[O-])cc1)C(Cl)Cl [chloramphenicol]	bacteriostatic
[H]/N=C(/N)N[C@H]1[C@H](O)[C@@H](O)[C@H](O[C@@H]2O[C@@H](C)[C@](O)(C=O)[C@H]2O[C@@H]2O[C@@H](CO)[C@H](O)[C@@H](O)[C@@H]2NC)[C@@H](N/C(N)=N\[H])[C@@H]1O [Streptomycin]	bactericidal
